Tests used:
Sirt6 = Sirt6 (Homo sapiens, UniProt Q8N6T7); experiment: Fluorogenic acyl peptide-AMC assay with Sirt6; assay type: biochemical; conditions: AMC released by trypsin, fluorescence
Text: (§1) FIGS. 6A, 6B. Charts showing the difference between fluorogenic acetyl peptide-AMC substrate (A) and heptyl peptide-AMC substrate (B) detection ability of Sirt6 and PfSir2 activity.
(§2) With respect to the first reaction (deacylation by Sirt6, PfSir2a, or Sirt7), the pH for the reaction can be selected by taking the optimal pH of Sirt6, PfSir2a, or Sirt7 into consideration. The pH is typically adjusted to a pH of 6.0 to 8.5, or more particularly, a pH of 6.8 to 8.5. The reaction buffer preferably provides the above-mentioned pH. For example, Tris-HCl, HEPES-KOH, and other such buffers may be used in the instant method. More specifically, for example, 20 mM Tris-HCl having a pH of 7.4 can be used. Generally, NAD is a co-substrate required for Sirt6, PfSir2a, or Sirt7 functioning, and is typically used at about 0.5 mM concentration. Salts and preservatives are generally also included in the reaction solution. […]
(§3) For sirtuins with robust deacetylase activity, a fluorogenic assay has been used to detect the activity and screen for inhibitors/activators (FIG. 5, top). […] After a sirtuin removes the acetyl group, the AMC can be released by trysin, which produces a fluorescence signal. Thus, the presence of a compound that can change the activity of sirtuin being analyzed can be detected by monitoring the fluoroscence released in the reaction. […]

PfSir2a = PfSir2a (Plasmodium falciparum, UniProt Q8IE47); experiment: Fluorogenic acyl peptide-AMC assay with PfSir2a; assay type: biochemical; conditions: AMC released by trypsin, fluorescence
Chain of PfSir2a (Q8IE47 whole entry): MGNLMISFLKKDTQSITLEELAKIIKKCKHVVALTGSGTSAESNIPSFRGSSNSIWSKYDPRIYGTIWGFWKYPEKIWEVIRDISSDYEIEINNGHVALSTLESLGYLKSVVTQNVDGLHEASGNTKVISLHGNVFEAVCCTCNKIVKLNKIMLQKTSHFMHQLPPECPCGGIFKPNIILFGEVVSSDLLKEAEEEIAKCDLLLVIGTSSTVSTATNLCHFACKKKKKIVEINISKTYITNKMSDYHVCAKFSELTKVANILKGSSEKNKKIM
Text: as §1, §2, §3

Chain of Sirt6 (Q8N6T7 whole entry): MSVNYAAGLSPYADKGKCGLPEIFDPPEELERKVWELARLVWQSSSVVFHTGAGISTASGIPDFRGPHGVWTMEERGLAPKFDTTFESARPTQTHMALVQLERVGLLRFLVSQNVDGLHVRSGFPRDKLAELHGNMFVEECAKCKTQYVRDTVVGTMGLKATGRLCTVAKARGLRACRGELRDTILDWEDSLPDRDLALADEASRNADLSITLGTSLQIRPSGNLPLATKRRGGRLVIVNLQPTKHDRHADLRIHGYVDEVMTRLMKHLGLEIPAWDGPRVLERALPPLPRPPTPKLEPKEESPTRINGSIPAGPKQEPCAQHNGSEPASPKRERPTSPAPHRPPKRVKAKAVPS

Row | Substance | detection of Sirt6 activity with peptide-AMC substrate (Sirt6) | detection of PfSir2a activity with peptide-AMC substrate (PfSir2a)
1 | ISGASE(acetyl-K)-AMC peptide [acetyl peptide-AMC] | not detectable | not detectable
2 | ISGASE(heptanoyl-K)-AMC peptide [heptanoyl peptide-AMC] | can be used to detect the activity of Sirt6 and PfSir2a | can be used to detect the activity of Sirt6 and PfSir2a

From patent US10072282B2, “Modulators for SIRT6 and assays for screening same” (Cornell University, priority 2010, dated 2018)
